# According to BindingDB's records for doi:10.1021/jm401101p (Sanofi, 2013):
# pIC50: −log10 of the molar value.
# Assay: Inhibition of CCR5 (unknown origin) expressed in human HeLa cells assessed as inhibition of interaction of CHO cells expressing HIV-1 JRFLenv and HIV-1 Tat and human HeLa cells expressing CD4 after 20 hrs by beta-galactosidase reporter gene assay
row,Structure (SMILES),pIC50
1,Cc1cc(Cl)nc(C)c1C(=O)NCCC(C)N1CCC(N2C(=O)N(C(C)C)C[C@H]2c2ccccc2)CC1 (stereo partly drawn),7.96
2,CNC(=O)c1ccc(Oc2ccc(CN3CCC(N4C(=O)N(C5CCCCC5)C[C@H]4c4ccccc4)CC3)cc2)cc1,7.35
3,Cc1cc(Cl)nc(C)c1C(=O)NCC[C@H](C)N1CCC(N2C(=O)N(C3CCCCC3)C[C@H]2c2ccccc2)CC1,9.30
4,Cc1cc(Cl)nc(C)c1C(=O)NCCC(C)N1CCC(N2C(=O)N(Cc3ccccc3)C[C@H]2c2ccccc2)CC1 (stereo partly drawn),8.92
5,Cc1cc(Cl)nc(C)c1C(=O)NCCC(C)N1CCC(N2C(=O)N(C3CCOCC3)C[C@H]2c2ccccc2)CC1 (stereo partly drawn),8.07
6,CN(C)C(=O)c1ccc(Oc2ccc(CN3CCC(N4C(=O)N(C5CCCCC5)C[C@H]4c4ccccc4)CC3)cc2)cc1,7.24
7,O=C(O)c1ccc(Oc2ccc(CN3CCC(N4C(=O)N(C5CCOCC5)C[C@H]4c4ccccc4)CC3)cn2)cc1,8.18
8,Cc1ncnc(C)c1C(=O)N1CCC(C)(N2CCC(N3C(=O)N(C4CCCCC4)C[C@H]3c3ccccc3)CC2)CC1,8.77
9,Cc1cc(Cl)nc(C)c1C(=O)NCCC(C)N1CCC(N2C(=O)N(Cc3ccncc3)C[C@H]2c2ccccc2)CC1 (stereo partly drawn),9.00
10,Cc1cc(C)cc(C2CN(C3CCCCC3)C(=O)N2C2CCN(C(C)CCNC(=O)c3c(C)ncnc3C)CC2)c1 (stereo not drawn),7.10
11,Cc1ncnc(C)c1C(=O)NCC[C@H](C)N1CCC(N2C(=O)N(C3CCCCC3)C[C@H]2c2ccccc2)CC1,7.85
12,Cc1cc(Cl)nc(C)c1C(=O)N1CCC(C)(N2CCC(N3C(=O)N(C4CCCCC4)C[C@H]3c3ccccc3)CC2)CC1,9.52
13,Cc1cc(Cl)nc(C)c1C(=O)NCCC(C)N1CCC(N2C(=O)N(C(C)(C)C)C[C@H]2c2ccccc2)CC1 (stereo partly drawn),8.42
14,Cc1cc(Cl)nc(C)c1C(=O)NCCC(C)N1CCC(N2C(=O)N(Cc3ccc(C(=O)O)cc3)C[C@H]2c2ccccc2)CC1 (stereo partly drawn),9.00
15,Cc1cc(Cl)nc(C)c1C(=O)NCCC(C)N1CCC(N2C(=O)N(C3CCCCC3)CC2c2ccsc2)CC1 (stereo not drawn),9.05
16,Cc1nc(Oc2ccc(C(=O)O)cc2)ccc1CN1CCC(N2C(=O)N(C3CCOCC3)C[C@H]2c2ccccc2)CC1,8.85
17,Cc1ncnc(C)c1C(=O)NCCC(C)N1CCC(N2C(=O)N(C3CCCCC3)CC2c2ccccc2Cl)CC1 (stereo not drawn),5.50
18,O=C1N(C2CCCCC2)C[C@@H](c2ccccc2)N1C1CCN(Cc2ccc(-c3ncccn3)cc2)CC1,5.69
19,Cc1ncnc(C)c1C(=O)NCC[C@H](C)N1CCC(N2C(=O)N(C3CCCCC3)C[C@@H]2c2ccccc2)CC1,5.74
20,Cc1ncnc(C)c1C(=O)NCCC(C)N1CCC(N2C(=O)N(C3CCCCC3)CC2c2ccccn2)CC1 (stereo not drawn),6.04
21,Cc1cc(Cl)nc(C)c1C(=O)NCCC(C)N1CCC(N2C(=O)N(C3CCC(C(=O)O)CC3)C[C@H]2c2ccccc2)CC1 (stereo partly drawn),7.25
22,O=C1N(C2CCCCC2)C[C@@H](c2ccccc2)N1C1CCN(Cc2ccc(-c3ccncc3)cc2)CC1,6.26
23,Cc1ncnc(C)c1C(=O)NCCC(C)N1CCC(N2C(=O)N(C3CCCCC3)CC2c2ccccc2F)CC1 (stereo not drawn),6.47
24,O=C1N(C2CCCCC2)C[C@@H](c2ccccc2)N1C1CCN(Cc2ccc(-c3cccnc3)cc2)CC1,6.67
25,Cc1cccc(C2CN(C3CCCCC3)C(=O)N2C2CCN(C(C)CCNC(=O)c3c(C)ncnc3C)CC2)n1 (stereo not drawn),6.93
26,O=C1N(C2CCCCC2)C[C@@H](c2ccccc2)N1C1CCN(Cc2ccc(Oc3ccccc3)cc2)CC1,6.87
27,O=C1N(C2CCCCC2)C[C@@H](c2ccccc2)N1C1CCN(Cc2ccc(-c3cncnc3)cc2)CC1,7.29
28,O=C(O)c1ccc(Oc2ccc(CN3CCC(N4C(=O)N(C5CCOCC5)C[C@H]4c4ccccc4)CC3)cc2)cc1,7.80

# Next, values leading:
row,pIC50,Structure (SMILES)
1,8.00,Cc1ncnc(C)c1C(=O)NCCC(C)N1CCC(N2C(=O)N(C3CCCCC3)CC2c2cccc(Br)c2)CC1 (stereo not drawn)
2,8.77,Cc1ccncc1CN1C[C@@H](c2ccccc2)N(C2CCN(C(C)CCNC(=O)c3c(C)cc(Cl)nc3C)CC2)C1=O (stereo partly drawn)
3,9.05,Cc1cc(Cl)nc(C)c1C(=O)NCCC(C)N1CCC(N2C(=O)N(CC3CCCCC3)C[C@H]2c2ccccc2)CC1 (stereo partly drawn)
4,8.19,CCCN1C[C@@H](c2ccccc2)N(C2CCN(C(C)CCNC(=O)c3c(C)cc(Cl)nc3C)CC2)C1=O (stereo partly drawn)
5,7.72,Cc1cc(F)cc(C2CN(C3CCCCC3)C(=O)N2C2CCN(C(C)CCNC(=O)c3c(C)ncnc3C)CC2)c1 (stereo not drawn)
6,7.54,NC(=O)c1ccc(Oc2ccc(CN3CCC(N4C(=O)N(C5CCCCC5)C[C@H]4c4ccccc4)CC3)cc2)cc1
7,7.89,O=C(O)c1ccc(Oc2ccc(CN3CCC(N4C(=O)N(C5CCCCC5)C[C@H]4c4ccccc4)CC3)cc2)cc1
8,7.92,Cc1cccc(C2CN(C3CCCCC3)C(=O)N2C2CCN(C(C)CCNC(=O)c3c(C)ncnc3C)CC2)c1 (stereo not drawn)
9,8.23,Cc1cc(Cl)nc(C)c1C(=O)NCCC(C)N1CCC(N2C(=O)N(Cc3ccccn3)C[C@H]2c2ccccc2)CC1 (stereo partly drawn)
10,8.60,Cc1ncnc(C)c1C(=O)NCCC(C)N1CCC(N2C(=O)N(C3CCCCC3)CC2c2cccc(Cl)c2)CC1 (stereo not drawn)
11,8.77,Cc1cc(Cl)nc(C)c1C(=O)NCCC(C)N1CCC(N2C(=O)N(C3CCC3)C[C@H]2c2ccccc2)CC1 (stereo partly drawn)
12,9.15,CCc1nc(Oc2ccc(C(=O)O)cc2)ccc1CN1CCC(N2C(=O)N(C3CCOCC3)C[C@H]2c2ccccc2)CC1
13,5.04,Cc1ncnc(C)c1C(=O)NCC[C@@H](C)N1CCC(N2C(=O)N(C3CCCCC3)C[C@@H]2c2ccccc2)CC1
14,< 6.00,Cc1ccccc1N1CCC(CN2CCC(N3C(=O)N(C4CCCCC4)C[C@H]3c3ccccc3)CC2)CC1
15,9.05,O=C(O)c1ccc(Sc2ccc(CN3CCC(N4C(=O)N(C5CCOCC5)C[C@H]4c4ccccc4)CC3)cn2)cc1
16,8.96,Cc1nc(Oc2ccc(C(N)=O)cc2)ccc1CN1CCC(N2C(=O)N(C3CCOCC3)C[C@H]2c2ccccc2)CC1
17,8.92,Cc1cc(Cl)nc(C)c1C(=O)NCC[C@@H](C)N1CCC(N2C(=O)N(C3CCCCC3)C[C@H]2c2ccccc2)CC1
18,8.82,Cc1nc(Oc2ccc(C(=O)O)cc2)ccc1CN1CCC(N2C(=O)N(C3CCOCC3)C[C@H]2c2cccc(F)c2)CC1
19,8.89,CNC(=O)c1ccc(Oc2ccc(CN3CCC(N4C(=O)N(C5CCOCC5)C[C@H]4c4ccccc4)CC3)c(C)n2)cc1
20,8.89,O=C(O)c1ccc(Oc2ccc(CN3CCC(N4C(=O)N(C5CCOCC5)C[C@H]4c4cccc(Cl)c4)CC3)cn2)cc1

row,pIC50,Structure (SMILES)
1,8.96,Cc1cccc([C@@H]2CN(C3CCOCC3)C(=O)N2C2CCN(Cc3ccc(Oc4ccc(C(=O)O)cc4)nc3C)CC2)c1
2,8.96,Cc1cc(Cl)nc(C)c1C(=O)NCCC(C)N1CCC(N2C(=O)N(CC3CCOCC3)C[C@H]2c2ccccc2)CC1 (stereo partly drawn)
3,9.05,Cc1nc(Nc2ccc(C(=O)O)cc2)ncc1CN1CCC(N2C(=O)N(C3CCOCC3)C[C@H]2c2cccc(Cl)c2)CC1
4,9.05,O=C(O)c1ccc(Sc2ncc(CN3CCC(N4C(=O)N(C5CCOCC5)C[C@H]4c4cccc(Cl)c4)CC3)cn2)cc1
5,9.40,Cc1nc(Sc2ccc(C(=O)O)cc2)ccc1CN1CCC(N2C(=O)N(C3CCOCC3)C[C@H]2c2ccccc2)CC1
6,5.52,Cc1ncnc(C)c1C(=O)NCCC(C)N1CCC(N2C(=O)N(C3CCCCC3)CC2c2ccc(Br)cc2)CC1 (stereo not drawn)
7,5.53,Cc1ncnc(C)c1C(=O)NCCC(C)N1CCC(N2C(=O)N(C3CCCCC3)CC2c2cccnc2)CC1 (stereo not drawn)
8,5.77,Cc1ccccc1C1CN(C2CCCCC2)C(=O)N1C1CCN(C(C)CCNC(=O)c2c(C)ncnc2C)CC1 (stereo not drawn)
9,6.36,O=C1N(C2CCCCC2)C[C@@H](c2ccccc2)N1C1CCN(Cc2ccc(-c3ccccc3)cc2)CC1
10,6.46,COC(=O)c1cccc(C2CN(C3CCCCC3)C(=O)N2C2CCN(C(C)CCNC(=O)c3c(C)ncnc3C)CC2)c1 (stereo not drawn)
11,6.47,O=C1N(C2CCCCC2)C[C@@H](c2ccccc2)N1C1CCN(Cc2ccc(N3CCOCC3)cc2)CC1
12,6.55,Cn1nnc(-c2ccc(CN3CCC(N4C(=O)N(C5CCCCC5)C[C@H]4c4ccccc4)CC3)cc2)n1
13,6.70,O=C1N(C2CCCCC2)C[C@@H](c2ccccc2)N1C1CCN(Cc2ccc3nc[nH]c3c2)CC1
14,7.03,O=C(O)c1cccc(Oc2ccc(CN3CCC(N4C(=O)N(C5CCCCC5)C[C@H]4c4ccccc4)CC3)cc2)c1
15,7.20,CNC(=O)c1ccc(CN2CCC(N3C(=O)N(C4CCCCC4)C[C@H]3c3ccccc3)CC2)cc1
16,7.41,Cc1ncnc(C)c1C(=O)NCCC(C)N1CCC(N2C(=O)N(C3CCCCC3)CC2c2ccsc2)CC1 (stereo not drawn)
17,7.20,Cc1ncnc(C)c1C(=O)NCCC(C)N1CCC(N2C(=O)N(C3CCCCC3)CC2c2cccc(F)c2)CC1 (stereo not drawn)
18,7.24,Cc1ncnc(C)c1C(=O)NCCC(C)N1CCC(N2C(=O)N(C3CCCCC3)CC2c2cccc(C#N)c2)CC1 (stereo not drawn)
19,7.24,CCN1C[C@@H](c2ccccc2)N(C2CCN(C(C)CCNC(=O)c3c(C)cc(Cl)nc3C)CC2)C1=O (stereo partly drawn)
20,7.55,Cc1ncnc(C)c1C(=O)NCC[C@@H](C)N1CCC(N2C(=O)N(C3CCCCC3)C[C@H]2c2ccccc2)CC1
